The source of these data is ChEMBL document CHEMBL1201862, “PubChem BioAssay data set” (2004).

Some test systems named below: A498; CCRF-CEM; COLO 205; DU-145; HCC 2998; HCT-116; HOP-92; HT-29; IGROV-1; LOX IMVI; MDA-MB-435; MDA-N; Malme-3M; NCI/ADR-RES; OVCAR-3; SW-620; UACC-62; SK-MEL-2; TK-10; PC-3.
What all share (test): DTP human tumour cell line panel, 48 h

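Exposure lasted 48 hours, with cells grown in 96-well plates and compounds tested at five concentrations. At the GI50, growth is halved.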 Calls of active or inactive are those of the source. Rule as the data show it: active = GI50 up to about 1.1 µM and inactive = higher.

As a reminder, the GI50 is the concentration at which growth is held to half of that of the control. As to `COc1cc(/C=C2\N=C(c3ccccc3)N(c3cc4cc(Sc5ccccc5)ccc4[nH]3)C2=O)cc(OC)c1OC`, the GI50 in the assay on A498 is 13.8 µM (inactive); in the assay with CCRF-CEM, 16.9 µM (inactive); in the assay on COLO 205, 11.3 µM (inactive); in the assay on DU-145, 15.2 µM (inactive); in the assay with HCC 2998, 12.7 µM (inactive); in the assay with HCT-116 it was 11.7 µM (inactive). In addition, the GI50 in the assay with HOP-92 is 6.92 µM (inactive); in the assay with HT-29 it was 16.1 µM (inactive); in the assay on IGROV-1, 15.5 µM (inactive); in the assay with LOX IMVI it was 11.3 µM (inactive); with MDA-MB-435, 3.84 µM (inactive); with MDA-N it was 3.72 µM (inactive). The GI50 in the assay on Malme-3M is 2.96 µM (inactive); in the assay with NCI/ADR-RES, 20.2 µM (inactive); in the assay on OVCAR-3, 17.8 µM (inactive); with SW-620 it was 19.2 µM (inactive); in the assay with UACC-62, 10.1 µM (inactive).
Regarding `COc1cc2c(c(OC)c1OC)C(=O)NCCC2`, the GI50 was > 100 µM (inactive) in the assay with A498; > 100 µM (inactive) with CCRF-CEM; > 100 µM (inactive) in the assay on COLO 205; > 92.9 µM (inactive) with HCC 2998; > 100 µM (inactive) in the assay with HCT-116; > 100 µM (inactive) in the assay with HOP-92. Further, the GI50 in the assay on HT-29, with IGROV-1, with LOX IMVI, in the assay on Malme-3M, in the assay on NCI/ADR-RES and in the assay on OVCAR-3 was > 100 µM (inactive) throughout. The GI50 with SK-MEL-2, in the assay on SW-620, with TK-10 and in the assay with UACC-62 was > 100 µM (inactive) in each case.
Regarding `O=C1/C(=C\c2cccc(Oc3ccccc3)c2)SC(c2ccccc2)N1c1cccc(Cl)c1` (configuration not stated), the GI50 in the assay with A498, in the assay on COLO 205, in the assay with DU-145, in the assay on HCC 2998, in the assay with HCT-116 and in the assay on HOP-92 was > 100 µM (inactive) each time. For the same compound, the GI50 is > 100 µM (inactive) in the assay on HT-29; > 100 µM (inactive) in the assay on LOX IMVI; 92.7 µM (inactive) in the assay on MDA-MB-435; > 100 µM (inactive) in the assay on MDA-N; > 100 µM (inactive) in the assay on Malme-3M; > 100 µM (inactive) with NCI/ADR-RES. For the same compound, the GI50 with OVCAR-3, in the assay with SK-MEL-2, with SW-620, in the assay on TK-10 and in the assay on UACC-62 was > 100 µM (inactive) in each case.
For the compound `CC1=C2C(=CC(C)(C)[C@@H]2O)C(=O)[C@](C)(O)C12CC2` [ILLUDIN M], the GI50 with A498 is 0.0206 µM (active); with CCRF-CEM, 0.0168 µM (active); with COLO 205, 0.0243 µM (active); with HCC 2998, < 0.0117 µM (active); with HCT-116, 0.01 µM (active); in the assay with HOP-92 it was 0.0193 µM (active). Also, the concentration for 50% growth inhibition (GI50) is < 0.0126 µM (active) with HT-29; 0.00989 µM (active) in the assay with IGROV-1; 0.0172 µM (active) with LOX IMVI; 0.0171 µM (active) in the assay on MDA-N; 0.022 µM (active) in the assay with Malme-3M; < 0.0143 µM (active) in the assay with OVCAR-3. Also, the GI50 with PC-3 was 0.0138 µM (active); in the assay with SK-MEL-2, 0.0134 µM (active); in the assay on SW-620, 0.013 µM (active); in the assay on TK-10, < 0.0182 µM (active); in the assay with UACC-62, 0.0208 µM (active).
Take `C=C1C(C)C2C(Cc3ccccc3)NC(=O)C23C(OC(C)=O)/C=C/C(C)(O)CC(C)C/C=C/C3C1O` (configuration not stated): the concentration for 50% growth inhibition (GI50) was 0.117 µM (active) in the assay on A498; 1.03 µM (active) in the assay on CCRF-CEM; 0.104 µM (active) in the assay with COLO 205; > 100 µM (inactive) with DU-145; 16.1 µM (inactive) in the assay on HCC 2998; 4.53 µM (inactive) in the assay on HCT-116. Further, the concentration for 50% growth inhibition (GI50) is 0.154 µM (active) in the assay on HOP-92; 0.138 µM (active) in the assay with HT-29; 1.32 µM (inactive) in the assay on IGROV-1; 0.0593 µM (active) in the assay on LOX IMVI; 32.9 µM (inactive) in the assay with MDA-MB-435; > 100 µM (inactive) with MDA-N. For the same compound, the GI50 was 28.4 µM (inactive) with Malme-3M; 57 µM (inactive) with NCI/ADR-RES; 2.19 µM (inactive) with OVCAR-3; 8.97 µM (inactive) in the assay on SK-MEL-2; 90.6 µM (inactive) with SW-620; 60.1 µM (inactive) in the assay with TK-10. Moreover, the GI50 in the assay with UACC-62 was 18.2 µM (inactive).
Regarding `CC[C@@H]1/C=C/C=C/C[C@H](C)[C@@H](O)[C@](C)(O)C(=O)[C@H](C)[C@@H](O)[C@H](C)C(=O)[C@H](C)[C@@H](O)[C@H](C)/C=C/C(=O)O[C@H]2[C@@H](C)[C@@H](CC1)O[C@@]1(CC[C@@H](C)[C@@H](CC(C)O)O1)[C@@H]2C` (some centres not stated), the GI50 was 1.22 µM (inactive) in the assay with CCRF-CEM; < 0.01 µM (active) in the assay with COLO 205; 1.88 µM (inactive) in the assay with DU-145; 1.52 µM (inactive) in the assay with HCC 2998; 1.1 µM (active) in the assay with HCT-116; 1.59 µM (inactive) in the assay on HOP-92. Besides, the GI50 is 1.36 µM (inactive) in the assay with HT-29; 1.98 µM (inactive) in the assay with IGROV-1; 1.68 µM (inactive) with LOX IMVI; 1.52 µM (inactive) in the assay with MDA-MB-435; 1.61 µM (inactive) with MDA-N; 3.49 µM (inactive) in the assay on Malme-3M. Besides, the concentration for 50% growth inhibition (GI50) is < 0.01 µM (active) with PC-3; 2.13 µM (inactive) with SK-MEL-2; 2.92 µM (inactive) with SW-620; 1.65 µM (inactive) with TK-10; 1.71 µM (inactive) in the assay with UACC-62.
Turning to `COc1ccc(-c2cc(=O)c3c(O)c(O)c(OC)cc3o2)cc1O`, the GI50 with A498, in the assay on CCRF-CEM, in the assay with COLO 205, with HCC 2998, with HCT-116 and in the assay with HOP-92 was > 100 µM (inactive) throughout. For the same compound, the GI50 in the assay on HT-29, with IGROV-1, in the assay on LOX IMVI, with Malme-3M, in the assay with OVCAR-3 and in the assay on SK-MEL-2 was > 100 µM (inactive) throughout. Further, the GI50 with SW-620, with TK-10 and in the assay on UACC-62 was > 100 µM (inactive) each time.
Turning to `Clc1ccc(-c2ccc(-c3nnc(COc4ccc(OCc5nnc(-c6ccc(-c7ccc(Cl)cc7Cl)o6)o5)c(Cl)c4)o3)o2)c(Cl)c1`, the GI50 is > 100 µM (inactive) with A498; 32.4 µM (inactive) with CCRF-CEM; > 100 µM (inactive) in the assay on COLO 205; > 100 µM (inactive) with DU-145; > 100 µM (inactive) in the assay on HCC 2998; > 100 µM (inactive) with HCT-116. In addition, the GI50 in the assay with HT-29, in the assay on IGROV-1, with LOX IMVI, in the assay on MDA-MB-435, in the assay on MDA-N and in the assay with NCI/ADR-RES was > 100 µM (inactive) in each case. Further, the GI50 in the assay on OVCAR-3 is > 100 µM (inactive); in the assay with SK-MEL-2, 25.3 µM (inactive); with SW-620 it was > 100 µM (inactive); in the assay on TK-10 it was 84.5 µM (inactive); in the assay with UACC-62 it was > 100 µM (inactive).
For `O=C(NCCC1CN(S(=O)(=O)C(F)(F)F)c2ccccc21)OCc1ccccc1` (configuration not stated), the GI50 in the assay with A498 was > 100 µM (inactive); with CCRF-CEM it was 38.6 µM (inactive); with COLO 205 it was > 100 µM (inactive); in the assay with DU-145, > 100 µM (inactive); with HCC 2998, > 100 µM (inactive); with HCT-116, > 100 µM (inactive). Also, the GI50 in the assay on HOP-92 is 77.4 µM (inactive); with HT-29, > 100 µM (inactive); in the assay on IGROV-1, > 100 µM (inactive); in the assay on MDA-MB-435, > 100 µM (inactive); in the assay on Malme-3M it was 12 µM (inactive); with NCI/ADR-RES it was > 100 µM (inactive). The GI50 with OVCAR-3, with PC-3, in the assay on SK-MEL-2, in the assay on SW-620 and with UACC-62 was > 100 µM (inactive) each time.
Turning to `CCN(CC)C(=O)CC12CCCCC1=Nc1ccccc12` (configuration not stated), the GI50 is > 100 µM (inactive) in the assay on A498; > 100 µM (inactive) in the assay with CCRF-CEM; > 100 µM (inactive) in the assay with COLO 205; > 100 µM (inactive) in the assay with HCC 2998; > 100 µM (inactive) with HCT-116; 51.6 µM (inactive) in the assay with HOP-92. Further, the GI50 with HT-29, with IGROV-1, in the assay with LOX IMVI, with Malme-3M, with OVCAR-3 and with SK-MEL-2 was > 100 µM (inactive) each time. In addition, the GI50 in the assay with SW-620, in the assay with TK-10 and in the assay on UACC-62 was > 100 µM (inactive) in each case.
Regarding `S=C(N/N=C/c1ccco1)NC12CC3CC(CC(C3)C1)C2`, the GI50 was > 100 µM (inactive) in the assay on A498; 54.2 µM (inactive) in the assay on CCRF-CEM; 15.3 µM (inactive) with COLO 205; 74.8 µM (inactive) in the assay with HCC 2998; > 100 µM (inactive) in the assay on HCT-116; 47 µM (inactive) in the assay with HOP-92. The GI50 in the assay on HT-29 was 31.4 µM (inactive); with IGROV-1 it was > 100 µM (inactive); with LOX IMVI, 86.5 µM (inactive); in the assay with Malme-3M it was > 100 µM (inactive); in the assay with OVCAR-3, 84.1 µM (inactive); with SK-MEL-2, > 100 µM (inactive). Also, the GI50 in the assay with SW-620 is > 100 µM (inactive); in the assay with TK-10 it was 49.5 µM (inactive); in the assay with UACC-62 it was 29.9 µM (inactive).
